Test results: US8598118B2, “Hepatocyte growth factor mimics as therapeutic agents” (Washington State University, priority 2011, dated 2013)
Structures can show the parent of a compound that is named as a salt. Where a SMILES comes first, the peptide text is derived from it. [ ]: non-standard residue; d: D form. dNle = CCCC[C@@H](N)C(=O)O; Nle = CCCC[C@H](N)C(=O)O; Ahx = NCCCCCC(=O)O

What was measured:
MDCK cells [1] = assay: Inhibition of HGF-dependent scattering in MDCK cells; format: cell-based, canine; conditions: for inhibition of HGF-dependent MDCK cell scattering: 20 ng/ml HGF, 48 h
Description: (§1) MDCK cells were grown to 100% confluency on the coverslips in six-well plates and washed twice with PBS. The confluent coverslips were then aseptically transferred to new six well plates containing 900 μl serum free DMEM. Norleual, Hinge peptide, and/or HGF (20 ng/ml) were added to appropriate wells. Control wells received PBS vehicle. Plates were incubated at 37° C. with 5% CO2 for 48 hours. Media was removed and cells were fixed with methanol. Cells were stained with Diff-Quik Wright-Giemsa (Dade-Behring, Newark, Del.) and digital images were taken. Coverslips were removed with forceps and more digital images were captured. Pixel quantification of images was achieved using Image J and statistics were performed using Prism 5 and InStat v.3.05.
as §1, with “h.” for “hours.”, “v.3.05 (GraphPad; San Diego, Calif.).” for “v.3.05.”

Met = assay: Inhibition of HGF-dependent Met phosphorylation in HEK293 cells; format: cell-based, human; conditions: 10 min
Description: HEK293 cells were seeded in 6 well tissue culture plates and grown to 95% confluency in DMEM containing 10% FBS. The cells were serum deprived for 24 h prior to the treatment to reduce the basal levels of phospho-Met. Following serum starvation, cocktails comprised of vehicle and HGF with/without 6-AH analogs were prepared and pre-incubated for 30 min at room temperature. The cocktail was then added to the cells for 10 min to stimulate the Met receptor and downstream proteins. Cells were harvested using RIPA lysis buffer (Millipore; Billerica, Mass.) fortified with phosphatase inhibitor cocktails 1 and 2 (Sigma-Aldrich; St. Louis, Mo.). The lysate was clarified by centrifugation at 15,000 nx g for 15 min, protein concentrations were determined using the BCA total protein assay (Pierce), and then appropriate volumes of the lysates were diluted with 2× reducing Laemmli buffer and heated for ten min at 95° C. Samples containing identical amounts of protein were resolved using SDS-PAGE (Criterion, BioRad Laboratories), transferred to nitrocellulose, and blocked in Tris-buffered saline (TBS) containing 5% milk for 1 h at room temperature. The phospho-Met antibody were added to the blocking buffer at a final concentration of 1:1000 and incubated at 4° C. overnight with gentle agitation. The membranes were then washed several times with water and TBS ([…], 0.05% Tween-20), a 1:5000 dilution of horseradish-peroxidase conjugated goat anti-rabbit antiserum was added, and the membranes further incubated for 1 h at room temperature. Proteins were visualized using the Supersignal West Pico Chemiluminescent Substrate system (Pierce, Fenton, Mo.) and molecular weights determined by comparison to protein ladders (BenchMark, Invitrogen, and Kaleidoscope, BioRad). Film images were digitized and analyzed using a UVP phosphoimager.

Male Sprague-Dawley rats = assay: Morris water maze with the HGF antagonist Hinge (Example 2)
Description: Male Sprague-Dawley rats (Taconic derived) weighing 390-450 g were maintained with free access to water and food (Harland Tekland F6 rodent diet, Madison, Wis.) except the night prior to surgery when food was removed. Each animal was anesthetized with Ketamine hydrochloride plus Xylazine (100 and 2 mg/kg im. respectively; Phoenix Scientific; St. Joseph, Mo., and Moby; Shawnee, Kans.). […] The guide cannula measured 2.5 cm in overall length and was prepared with a heat bulge placed 2.5 mm from its beveled tip, thus acting as a stop to control the depth of penetration. Once in position, the cannula was secured to the skull with two stainless-steel screws and dental cement. […]
A black circular platform (diameter: 12 cm; height: 24 cm) was placed 30 cm from the wall and submerged 2 cm below the water surface. […] The swimming path of the animals was recorded using a computerized video tracking system (Chromotrack; San Diego Instruments, CA). […] Swim speed was determined from these values. […]
Morris water maze data set mean latencies to find the platform during each daily block of five trials were calculated for each animal for each day of acquisition. […] Significant effects were analyzed by Newman-Keuls post-hoc test with a level of significance set at P<0.05.

MDCK cells [2] = assay: HGF-dependent MDCK cell proliferation (MTT); format: cell-based, canine; conditions: analog 10^−10M, 4 days
Description: 5000 MDCK cells were seeded into the wells of a 96 well plates in 10% FBS DMEM. To induce cellular quiescence, the cells were serum deprived for 24 h prior to initiating the treatments. Following serum starvation, 10 ng/ml HGF alone and with various concentrations of 6-AH analogs or PBS vehicle were added to the media. The cells were allowed to grow under these conditions for 4 days with a daily addition of 6-AH analogs. On the fourth day, 1 mg/ml of […] (MTT, Sigma-Aldrich) prepared in PBS was added to the cells and incubated for 4 h. Dimethyl sulfoxide diluted in a 0.01M glycine buffer was added to solubilize the cell membranes and the absorbance of reduced MTT in the buffer was quantitated at 590 nm using a plate reader (Biotek Synergy 2, Winooski, Vt.). HGF-dependent proliferation was determined by subtracting the basal proliferation (in the absence of HGF) from total proliferation rates in groups containing HGF.

hippocampal neurons [3] = assay: Spinogenesis in mRFP-β-actin transfected dissociated hippocampal neurons; format: cell-based, rat
Description: (§2) Hippocampal neurons (2×10^5 cells per square cm) were cultured from P1 Sprague Dawley rats on plates coated with poly-L-lysine from Sigma (St. Louis, Mo.; molecular weight 300,000). Hippocampal neurons were maintained in Neurobasal A media from Invitrogen (Carlsbad, Calif.) supplemented with B27 from Invitrogen, 0.5 mM L-glutamine, and […] cytosine-D-arabinofuranoside from Sigma added at 2 days in vitro. Hippocampal neurons were then cultured a further 3-7 days, at which time they were either transfected or treated with various pharmacological reagents as described in (Wayman, Davare et al. 2008).
(§3) Neurons were transfected with mRFP-β-actin on day in vitro 6 (DIV6) using LipofectAMINE™ 2000 (Invitrogen) according to the manufacturer's protocol. This protocol yielded the desired 3-5% transfection efficiency thus enabling the visualization of individual neurons. Higher efficiencies obscured the dendritic arbor of individual neurons. Expression of fluorescently tagged actin allowed clear visualization of dendritic spines, as dendritic spines are enriched in actin. On DIV7 the cells were treated with vehicle (H20) or peptides (as described in the text) added to media. On DIV 12 the neurons were fixed (4% paraformaldehyde, 3% sucrose, 60 mM PIPES, 25 mM HEPES, 5 mM EGTA, 1 mM MgCl2, pH 7.4) for 20 min at room temperature and mounted. Slides were dried for at least 20 hours at 4° C. and fluorescent images were obtained with Slidebook 4.2 Digital Microscopy Software driving an Olympus IX81 inverted confocal microscope with a 60× oil immersion lens, NA 1.4 and resolution 0.280 μm Dendritic spine density was measured on primary and secondary dendrites at a distance of at least 150 μm from the soma. Five 50 μm long segments of dendrite from at least 10 neurons per data point were analyzed for each data point reported. Each experiment was repeated at least three times using independent culture preparations. Dendrite length was determined using the National Institutes of Health's Image J 1.41o program (NIH, Bethesda, Md.) and the neurite tracing program Neuron J (Meijering, Jacob et al. 2004) Spines were manually counted.
as §2, with “centimeter)” for “cm)”, “P1-2” for “P1”, “the text or figure legends.” for “(Wayman, Davare et al. 2008).”

hippocampal neurons [4] = assay: Whole-cell recordings of AMPA-mediated mEPSCs; format: cell-based, rat
CA1 hippocampal neurons = assay: Spinogenesis in organotypic hippocampal slice cultures; format: cell-based, rat; conditions: 10^−12 M, 2 days, organotypic slices
Description: (§4) Hippocampi from P4 Sprague Dawley rats were cultured as previously described (Wayman, Impey et al. 2006). Briefly, 400 μm slices were cultured on (Milipore, Billerica, Mass.) for 3 days after which they were biolistically transfected with tomato fluorescent protein (TFP) using a Helios Gen Gun (BioRad, Hercules, Calif.), according to the manufacturer's protocol, to visualize dendritic arbors. Following a 24 hour recovery period slices were stimulated with vehicle (H2O), 1 pM Nle1-AngIV or Dihexa for 2 days. Slices were fixed and mounted. Hippocampal CA1 neuronal processes were imaged and measured as described above.
as §4, with “Gene” for “Gen”, “with” for “with vehicle (H2O),”

c-Met receptor = target: T1, c-Met receptor (Rattus norvegicus, UniProt P97523); assay: Effect of c-Met knock-down (shMet) on spinogenesis in hippocampal neurons; format: cell-based; conditions: neurons transfected with mRFP-β-actin alone; 10^−12 M, 48 hours
T1 construct: Dissociated hippocampal neurons were transfected with mRFP-β-actin and shMet RNA; endogenous in cells; host or cells: dissociated hippocampal neurons from P1-2 Sprague Dawley rats
Excerpt: as §3
A target sequence for c-Met was designed using RNAi central design program (see the website located at cancan.cshl.edu/). […]. The shRNA was transfected into cells using the lipofectamine method described above. Verification of receptor knockdown was done by creating a c-Met-6-Myc tagged gene product using the Gateway cloning system (Invitrogen). […]

T1 sequence (P17945 33-495 partner limits assumed): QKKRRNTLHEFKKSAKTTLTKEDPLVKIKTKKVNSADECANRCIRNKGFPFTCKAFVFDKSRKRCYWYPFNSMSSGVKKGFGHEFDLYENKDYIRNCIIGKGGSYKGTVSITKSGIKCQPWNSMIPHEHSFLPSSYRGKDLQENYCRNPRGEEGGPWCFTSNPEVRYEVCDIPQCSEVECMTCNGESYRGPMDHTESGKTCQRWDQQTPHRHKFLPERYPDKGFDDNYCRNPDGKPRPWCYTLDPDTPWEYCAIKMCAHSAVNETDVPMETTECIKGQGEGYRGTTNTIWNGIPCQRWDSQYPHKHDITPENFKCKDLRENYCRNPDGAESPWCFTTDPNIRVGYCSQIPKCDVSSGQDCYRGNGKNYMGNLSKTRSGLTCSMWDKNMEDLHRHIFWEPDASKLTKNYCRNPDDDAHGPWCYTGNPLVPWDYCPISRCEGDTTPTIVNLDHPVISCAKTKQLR
T1 sequence (P17945 496-728 partner limits assumed): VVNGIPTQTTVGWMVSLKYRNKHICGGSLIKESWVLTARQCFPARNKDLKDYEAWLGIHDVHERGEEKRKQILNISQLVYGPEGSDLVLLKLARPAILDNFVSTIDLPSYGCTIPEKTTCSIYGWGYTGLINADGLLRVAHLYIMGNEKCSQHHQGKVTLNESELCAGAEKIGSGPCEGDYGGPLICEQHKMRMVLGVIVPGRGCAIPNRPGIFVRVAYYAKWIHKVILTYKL
T1 sequence (P97523 25-1382): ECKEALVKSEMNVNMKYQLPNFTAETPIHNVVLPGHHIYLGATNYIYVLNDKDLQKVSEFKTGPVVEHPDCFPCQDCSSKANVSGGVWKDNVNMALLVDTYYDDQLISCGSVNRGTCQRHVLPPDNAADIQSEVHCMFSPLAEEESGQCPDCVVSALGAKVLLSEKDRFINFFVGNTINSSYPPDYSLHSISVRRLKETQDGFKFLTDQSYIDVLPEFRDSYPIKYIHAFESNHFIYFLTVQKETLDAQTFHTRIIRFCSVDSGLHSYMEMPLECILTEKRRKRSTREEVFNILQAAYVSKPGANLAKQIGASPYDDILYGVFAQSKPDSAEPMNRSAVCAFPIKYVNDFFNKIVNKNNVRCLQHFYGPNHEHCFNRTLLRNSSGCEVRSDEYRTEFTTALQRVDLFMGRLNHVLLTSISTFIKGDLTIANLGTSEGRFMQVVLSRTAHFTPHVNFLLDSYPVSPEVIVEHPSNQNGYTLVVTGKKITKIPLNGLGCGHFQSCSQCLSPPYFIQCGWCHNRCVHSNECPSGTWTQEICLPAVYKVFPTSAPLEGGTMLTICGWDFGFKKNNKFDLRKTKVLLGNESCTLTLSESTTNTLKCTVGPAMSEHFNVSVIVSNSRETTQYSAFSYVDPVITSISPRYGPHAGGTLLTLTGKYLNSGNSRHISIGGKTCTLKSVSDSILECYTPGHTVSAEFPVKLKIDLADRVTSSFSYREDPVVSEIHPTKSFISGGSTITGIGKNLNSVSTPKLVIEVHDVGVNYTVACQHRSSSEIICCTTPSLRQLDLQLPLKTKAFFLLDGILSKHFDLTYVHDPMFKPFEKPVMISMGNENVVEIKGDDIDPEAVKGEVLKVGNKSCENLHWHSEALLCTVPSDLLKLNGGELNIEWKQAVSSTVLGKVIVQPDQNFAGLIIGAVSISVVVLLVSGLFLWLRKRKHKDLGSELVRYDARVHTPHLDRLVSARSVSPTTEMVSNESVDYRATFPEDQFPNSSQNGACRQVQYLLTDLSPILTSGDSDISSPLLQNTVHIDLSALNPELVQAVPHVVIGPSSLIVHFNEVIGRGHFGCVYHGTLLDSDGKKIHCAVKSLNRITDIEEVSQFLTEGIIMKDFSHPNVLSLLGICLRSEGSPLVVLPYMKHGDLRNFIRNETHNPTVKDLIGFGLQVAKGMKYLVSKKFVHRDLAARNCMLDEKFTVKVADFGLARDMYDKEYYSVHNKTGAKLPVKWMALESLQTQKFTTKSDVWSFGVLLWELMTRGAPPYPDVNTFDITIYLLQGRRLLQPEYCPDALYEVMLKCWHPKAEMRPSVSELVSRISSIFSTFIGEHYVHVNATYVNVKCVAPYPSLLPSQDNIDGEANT

**Q.** With CCCC[C@@H](N)C(=O)N[C@@H](CCSC)C(=O)N[C@H](C(=O)NCCCCCC(N)=O)[C@@H](C)CC [D-Nle-Met-Ile-NH—(CH2)5—CONH2] (H-[dNle]MI[Ahx]-NH2) as the compound, how does the “inhibition of HGF-dependent MDCK cell scattering” value (MDCK cells [1]) read?
**A.** Its value is “not different”.

**Q.** What about the “inhibition of HGF-dependent Met auto-phosphorylation” value (Met) of the same compound?
**A.** Its value is “no ability to effect on Met activation”.

**Q.** Which “mean latency to find the pedestal, final day of training (day 8)” value (Male Sprague-Dawley rats; scopolamine icv pretreated rats, agents 300 pmol icv) does the source give for CN1[C@@H]2C[C@@H](OC(=O)[C@H](CO)c3ccccc3)C[C@H]1[C@@H]1O[C@@H]12 [scopolamine, scopolamine hydrobromide] here?
**A.** Its value is 84.8 s.

**Q.** CCCC[C@@H](N)C(=O)N[C@@H](Cc1c[nH]c2ccccc12)C(=O)N[C@H](C(=O)NCCCCCC(N)=O)[C@@H](C)CC [D-Nle-Trp-Ile-NH—(CH2)5—CONH2] (H-[dNle]WI[Ahx]-NH2) was tested. Which “inhibition of HGF-dependent MDCK cell scattering” value (MDCK cells [1]) did it give?
**A.** Its value is “different from the HGF alone group but not different from the control group”.

**Q.** And the “inhibition of HGF-dependent Met auto-phosphorylation” value (Met)?
**A.** Its value is “intermediate inhibitory activity”.

**Q.** What about the “inhibition of HGF-dependent MDCK cell proliferation” value (MDCK cells [2]) of the same compound?
**A.** Its value is “inhibitory activity, albeit less than that observed with the most potent analogs”.

**Q.** “DYIRNC (Synthetic hinge peptide) [reference compound]” was tested. Which “effect on basal spinogenesis” value (hippocampal neurons [3]; Hinge alone, wide range of doses) did it give?
**A.** Its value is “no effect on spinogenesis”.

**Q.** What about the “inhibition of stimulated spine formation” value (hippocampal neurons [3]; neurons stimulated with 10 ng/ml HGF, 10^−12 M Nle1-AngIV or 10^−12 M Dihexa) of the same compound?
**A.** Its value is “effectively inhibit spine formation”.

**Q.** And the “inhibition of scattering of MDCK cells” value (MDCK cells [1]; Hinge)?
**A.** Its value is “inhibit scattering”.

**Q.** What about the “mean frequency of mEPSCs” value (hippocampal neurons [4]; 10^−12 M, 5 days (Example 2)) of the same compound?
**A.** Its value is 4.51±0.47.

**Q.** And the “mean latency to find the pedestal, final day of training (day 8)” value (Male Sprague-Dawley rats; aCSF followed by Hinge (no scopolamine), icv)?
**A.** Its value is 46.1 s.

**Q.** With CCCC[C@H](N)C(=O)N[C@@H](Cc1ccc(O)cc1)C(=O)N[C@H](C(=O)N[C@@H](Cc1c[nH]cn1)C(=O)N1CCC[C@H]1C(=O)N[C@@H](Cc1ccccc1)C(=O)O)[C@@H](C)CC [Nle1-AngIV, reference compound] (H-[Nle]YIHPF-OH; N-terminus and C-terminus assumed) as the compound, how does the “fold increase in the number of spines” value (hippocampal neurons [3]; 10^−12 M, 5 day treatment, vs vehicle) read?
**A.** Its value is “greater than 2 fold”.

**Q.** And the “spines per 50 μm dendrite length, CA1 neurons” value (CA1 hippocampal neurons)?
**A.** The value was 11 spines per 50 μm dendrite length.

**Q.** And the “fold increase over control mEPSC frequency” value (hippocampal neurons [4]; 10-12 M, 5 days)?
**A.** Its value is 1.7 fold.

**Q.** What about the “mean frequency of AMPA-mediated mEPSCs” value (hippocampal neurons [4]; 10-12 M, 5 days (Example 1)) of the same compound?
**A.** Its value is 5.27 Hz.

**Q.** And the “mean spine numbers per 50 μm dendrite length” value (c-Met receptor)?
**A.** Its value is 20.0.
